Source: US8415469B2, “Compounds and methods for kinase modulation, and indications therefor” (Plexxikon Inc., priority 2005, dated 2013)

Columns and labels:
Format in all cases: biochemical
[1] = molecular target: T1, Zap70 (Homo sapiens, UniProt P43403); experiment: AlphaScreen kinase assay, Zap70; conditions: read-out: IC50, activity toward kinase Zap70
T1 construct: P1868.pFastBac1 ZAP70 D327-G606 HIS, WT; His7 (HHHHHHH) (C); made in house
T1 sequence (P43403 with tags, fused parts or gaps): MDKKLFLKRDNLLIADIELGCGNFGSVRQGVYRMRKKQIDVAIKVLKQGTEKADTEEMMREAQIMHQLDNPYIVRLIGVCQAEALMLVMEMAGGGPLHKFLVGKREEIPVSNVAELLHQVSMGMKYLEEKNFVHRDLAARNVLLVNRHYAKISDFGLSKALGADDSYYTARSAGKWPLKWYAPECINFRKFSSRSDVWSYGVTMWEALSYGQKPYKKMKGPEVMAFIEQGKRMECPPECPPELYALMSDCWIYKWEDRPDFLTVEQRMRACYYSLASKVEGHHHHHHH
Method in brief: (§1)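 Biotinylated peptide substrate phosphorylation detected by AlphaScreen with phospho-specific antibody acceptor beads and streptavidin donor beads. Compounds tested as 8-point 1:3 serial dilutions from 20 mM DMSO stocks.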

[2] = molecular target: T2, Kdr (Homo sapiens, UniProt P35968); experiment: Z'-Lyte FRET kinase assay (Invitrogen), Kdr; conditions: read-out: IC50, activity toward kinase Kdr
T2 construct: purchased Invitrogen (assay run by Invitrogen)

[3] = molecular target: T3, Erk2 (Homo sapiens, UniProt P28482); experiment: AlphaScreen kinase assay, Erk2; conditions: read-out: IC50, activity toward kinase Erk2
T3 construct: P4227.pET15S ERK2/MEK1DD; His6 with thrombin site (N); made in house
From the text: (§2) AlphaScreen assay was used to screen additional kinases. The assay is similarly dependent on the phosphorylation of a peptide substrate. In this assay, an antibody that recognizes phosphorylated substrate is bound to an acceptor bead. The peptide substrate is attached to biotin, which binds to a donor head that contains streptavidin. Thus phosphorylated substrate is bound by antibody and streptavidin, bringing the donor and acceptor heads into close proximity when kinase is not inhibited. The donor produces singlet oxygen which results in emission from the acceptor when they are in close proximity. Conversely, when kinase is inhibited, the donor and acceptor beads are not associated and the emission from the acceptor is reduced.
(§3) AlphaScreen assays were done using compounds dissolved in DMSO to a concentration of 20 mM. The compounds were diluted accordingly to the desired final concentrations in each sample well, using 1:3 serial dilution for a total of 8 concentration points.

[4] = molecular target: T4, Fak (Homo sapiens, UniProt Q05397); experiment: AlphaScreen kinase assay, Fak; conditions: read-out: IC50, activity toward kinase Fak
T4 construct: P1358.pFastBacHtb FAK S411-Q686-X; His6 with pFastBacHTb leader (TEV site) (N); made in house; host or cells: Sf9 (baculovirus)

[5] = molecular target: T5, Pyk2 (Homo sapiens, UniProt Q14289); experiment: AlphaScreen kinase assay, Pyk2; conditions: read-out: IC50, activity toward kinase Pyk2
T5 construct: purchased Upstate Biotechnology

[6] = molecular target: T6, Abl (Homo sapiens, UniProt P00519); experiment: AlphaScreen kinase assay, Abl; conditions: read-out: activity toward kinase Abl, IC50
T6 construct: P1121. pET-SPEC BI-PTP Abl G227-V515-X; His6 (N); made in house; host or cells: E. coli (PTP1B co-expressed)
T6 sequence (P00519 with tags, fused parts or gaps): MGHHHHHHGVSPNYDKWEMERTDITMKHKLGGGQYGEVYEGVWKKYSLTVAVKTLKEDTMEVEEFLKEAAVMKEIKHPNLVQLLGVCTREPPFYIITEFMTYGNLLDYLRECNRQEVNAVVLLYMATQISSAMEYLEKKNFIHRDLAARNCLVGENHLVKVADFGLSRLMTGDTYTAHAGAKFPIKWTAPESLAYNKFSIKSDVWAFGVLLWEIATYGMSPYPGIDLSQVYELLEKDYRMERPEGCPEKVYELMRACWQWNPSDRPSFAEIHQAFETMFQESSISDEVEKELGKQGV
Method in brief: as §1

[7] = molecular target: T7, FGFR1 (Homo sapiens, UniProt P11362, C488A/C584S); experiment: AlphaScreen kinase assay, FGFR1; conditions: read-out: IC50, activity toward kinase FGFR
T7 construct: P1351.pET N6 BI-PTP FGFR A458-E765-X C488A, C584S; made in house; host or cells: E. coli (PTP1B co-expressed)

[8] = molecular target: T8, Ret (Homo sapiens, UniProt P07949); experiment: AlphaScreen kinase assay, Ret; conditions: read-out: IC50, activity toward kinase Ret
T8 construct: P1378.pET-SF BI-PTP RET H661-R1012 HIS; made in house
T8 sequence (P07949 with tags, fused parts or gaps): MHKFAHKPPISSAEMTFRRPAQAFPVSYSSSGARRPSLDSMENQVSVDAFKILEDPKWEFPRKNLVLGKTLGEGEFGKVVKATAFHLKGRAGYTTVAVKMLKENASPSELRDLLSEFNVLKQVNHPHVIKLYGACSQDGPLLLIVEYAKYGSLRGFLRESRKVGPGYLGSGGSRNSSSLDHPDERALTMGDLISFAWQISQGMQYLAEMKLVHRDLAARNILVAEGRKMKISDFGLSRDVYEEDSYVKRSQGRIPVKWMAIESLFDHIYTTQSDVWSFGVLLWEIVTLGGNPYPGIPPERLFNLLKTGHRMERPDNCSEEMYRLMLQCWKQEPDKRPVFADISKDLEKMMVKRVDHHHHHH

[9] = molecular target: T9, Kit (Homo sapiens, UniProt P10721); experiment: AlphaScreen kinase assay, Kit; conditions: read-out: IC50, activity toward kinase Kit
T9 construct: P1332.N6 BI PTP KIT M552-K948-X COD; His6 (N); made in house; host or cells: E. coli (PTP1B co-expressed)

[10] = molecular target: PDGFRA (Homo sapiens, UniProt P16234); experiment: AlphaScreen kinase assay, PDGFRA; conditions: read-out: IC50, activity toward kinase PDGFRA
From the text: as §2, §3

[11] = molecular target: Csk (Homo sapiens, UniProt P41240); experiment: AlphaScreen kinase assay, Csk; conditions: read-out: IC50, activity toward kinase Csk
Method in brief: as §1

[12] = molecular target: T10, B-Raf V600E (Homo sapiens, UniProt P15056, V600E); experiment: AlphaScreen kinase assay, B-Raf V600E; conditions: read-out: IC50, activity toward kinase B-Raf V600E
T10 construct: P4254. pFastBacBD-CDC37 BRAF D437-K722-X, V600E; His6 with pFastBac HT leader (TEV site) (N); made in house; host or cells: Sf9 (baculovirus; chaperone CDC37 co-expressed)

[13] = molecular target: T11, Fms (Homo sapiens, UniProt P07333); experiment: AlphaScreen kinase assay, Fms; conditions: read-out: IC50, activity toward kinase Fms
T11 construct: purchased Upstate Biotechnology

[14] = molecular target: T12, B-Raf (Homo sapiens, UniProt P15056); experiment: AlphaScreen kinase assay, B-Raf; conditions: read-out: IC50, activity toward kinase B-Raf
T12 construct: purchased Upstate Biotechnology

[15] = molecular target: T13, Src (Homo sapiens, UniProt P12931); experiment: AlphaScreen kinase assay, Src; conditions: read-out: IC50, activity toward kinase Src
T13 construct: P1144. pET-N6 BI-PTP SRC V86-L536-X; made in house

[16] = molecular target: MAP4K4 (Homo sapiens, UniProt O95819); experiment: AlphaScreen kinase assay, MAP4K4; conditions: read-out: IC50, activity toward kinase MAP4K4
[17] = molecular target: T14, Stk6 (Homo sapiens, UniProt O14965); experiment: Z'-Lyte FRET kinase assay (Invitrogen), Stk6; conditions: read-out: IC50, activity toward kinase Stk6
T14 construct: purchased Invitrogen (Carlsbad, Calif.), screening service
T14 sequence (O14965 1-403): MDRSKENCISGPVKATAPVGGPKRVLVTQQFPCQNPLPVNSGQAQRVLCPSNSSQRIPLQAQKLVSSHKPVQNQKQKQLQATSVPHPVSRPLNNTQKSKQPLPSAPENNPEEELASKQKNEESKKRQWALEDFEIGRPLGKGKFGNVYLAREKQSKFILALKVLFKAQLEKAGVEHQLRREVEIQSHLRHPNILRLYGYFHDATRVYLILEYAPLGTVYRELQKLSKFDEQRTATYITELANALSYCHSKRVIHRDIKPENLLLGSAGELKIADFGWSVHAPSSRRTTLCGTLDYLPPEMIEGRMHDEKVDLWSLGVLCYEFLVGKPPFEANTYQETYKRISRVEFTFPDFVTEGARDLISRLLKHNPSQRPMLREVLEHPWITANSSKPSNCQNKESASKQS

[18] = molecular target: Frk (Homo sapiens, UniProt P42685); experiment: AlphaScreen kinase assay, Frk; conditions: read-out: IC50, activity toward kinase Frk
Method in brief: as §1

[19] = molecular target: Hck (Homo sapiens, UniProt P08631); experiment: AlphaScreen kinase assay, Hck; conditions: read-out: IC50, activity toward kinase Hck
From the text: as §2, §3

[20] = molecular target: T15, c-Raf-1 (Homo sapiens, UniProt P04049); experiment: AlphaScreen kinase assay, c-Raf-1; conditions: read-out: IC50, activity toward kinase c-Raf-1
T15 construct: purchased Upstate Biotechnology

[21] = molecular target: Brk (Homo sapiens, UniProt Q13882); experiment: AlphaScreen kinase assay, Brk; conditions: read-out: IC50, activity toward kinase Brk
Method in brief: as §1

[22] = molecular target: T16, Btk (Homo sapiens, UniProt Q06187); experiment: Z'-Lyte FRET kinase assay (Invitrogen), Btk; conditions: read-out: IC50, activity toward kinase Btk
T16 construct: purchased Invitrogen (assay run by Invitrogen)

[23] = molecular target: T17, Flt4 (Homo sapiens, UniProt P35916); experiment: AlphaScreen kinase assay, Flt4; conditions: read-out: IC50, activity toward kinase Flt4
T17 construct: purchased ProQinase GmbH (Freiburg, Germany)
Method in brief: as §1

[24] = molecular target: T18, Flt1 (Homo sapiens, UniProt P17948); experiment: AlphaScreen kinase assay, Flt1; conditions: read-out: IC50, activity toward kinase Flt1
T18 construct: P1826.pETN6 BI-PTP FLT1 M799-D1165-X WT; His6 (N); made in house; host or cells: E. coli (PTP1B co-expressed)
T18 sequence (P17948 with tags, fused parts or gaps): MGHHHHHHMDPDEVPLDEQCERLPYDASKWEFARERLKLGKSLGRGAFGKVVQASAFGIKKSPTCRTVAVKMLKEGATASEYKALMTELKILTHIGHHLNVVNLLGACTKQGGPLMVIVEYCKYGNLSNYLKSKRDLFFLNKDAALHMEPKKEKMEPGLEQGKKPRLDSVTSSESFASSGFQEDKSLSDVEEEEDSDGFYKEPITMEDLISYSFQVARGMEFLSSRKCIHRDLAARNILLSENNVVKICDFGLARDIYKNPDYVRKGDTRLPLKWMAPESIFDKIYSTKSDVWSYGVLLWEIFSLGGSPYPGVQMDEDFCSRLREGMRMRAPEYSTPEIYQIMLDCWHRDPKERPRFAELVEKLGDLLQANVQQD

[25] = molecular target: T19, Jnk3 (Homo sapiens, UniProt P53779); experiment: AlphaScreen kinase assay, Jnk3; conditions: read-out: IC50, activity toward kinase Jnk3
T19 construct: purchased Upstate Biotechnology

[26] = molecular target: T20, Met (Homo sapiens, UniProt P08581); experiment: AlphaScreen kinase assay, Met; conditions: read-out: IC50, activity toward kinase Met
T20 construct: P1818.pETN6 BI-PTP MET G1056-G1364-X WT; His6 (N); made in house; host or cells: E. coli (PTP1B co-expressed)
Method in brief: as §1

Measured: IC50

T7 sequence (P11362 458-765 C488A/C584S): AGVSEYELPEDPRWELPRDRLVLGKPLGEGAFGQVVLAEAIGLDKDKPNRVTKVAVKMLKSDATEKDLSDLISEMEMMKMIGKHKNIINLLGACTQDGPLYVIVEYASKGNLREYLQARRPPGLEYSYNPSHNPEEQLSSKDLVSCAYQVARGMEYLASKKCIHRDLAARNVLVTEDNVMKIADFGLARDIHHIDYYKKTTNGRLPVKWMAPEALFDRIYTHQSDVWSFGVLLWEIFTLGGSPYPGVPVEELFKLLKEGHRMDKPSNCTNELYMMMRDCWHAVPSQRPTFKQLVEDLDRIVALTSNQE
T9 sequence (P10721 with tags, fused parts or gaps): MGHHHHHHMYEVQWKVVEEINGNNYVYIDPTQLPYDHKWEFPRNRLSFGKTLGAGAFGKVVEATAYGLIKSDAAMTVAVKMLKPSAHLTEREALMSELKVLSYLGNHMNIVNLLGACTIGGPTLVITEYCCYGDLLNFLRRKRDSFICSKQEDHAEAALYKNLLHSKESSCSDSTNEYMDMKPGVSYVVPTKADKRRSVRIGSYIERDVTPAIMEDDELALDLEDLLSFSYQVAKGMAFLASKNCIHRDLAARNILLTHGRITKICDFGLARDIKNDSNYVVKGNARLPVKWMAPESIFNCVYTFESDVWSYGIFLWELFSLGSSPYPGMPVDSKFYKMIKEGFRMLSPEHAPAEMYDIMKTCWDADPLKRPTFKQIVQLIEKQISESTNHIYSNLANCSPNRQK
T13 sequence (P12931 with tags, fused parts or gaps): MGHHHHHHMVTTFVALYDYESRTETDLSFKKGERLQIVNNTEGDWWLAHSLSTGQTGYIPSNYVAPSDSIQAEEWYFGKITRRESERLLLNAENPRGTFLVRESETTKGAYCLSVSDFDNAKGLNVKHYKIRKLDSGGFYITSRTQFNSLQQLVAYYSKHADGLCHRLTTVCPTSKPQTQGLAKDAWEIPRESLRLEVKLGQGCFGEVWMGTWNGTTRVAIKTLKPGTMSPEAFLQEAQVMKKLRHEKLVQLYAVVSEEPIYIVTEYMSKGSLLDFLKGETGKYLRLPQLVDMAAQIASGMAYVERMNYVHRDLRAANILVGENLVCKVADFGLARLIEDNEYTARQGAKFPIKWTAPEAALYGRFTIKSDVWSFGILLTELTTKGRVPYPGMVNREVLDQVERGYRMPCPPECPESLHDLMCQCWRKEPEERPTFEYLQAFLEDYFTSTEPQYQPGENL
T4 sequence (Q05397 411-686): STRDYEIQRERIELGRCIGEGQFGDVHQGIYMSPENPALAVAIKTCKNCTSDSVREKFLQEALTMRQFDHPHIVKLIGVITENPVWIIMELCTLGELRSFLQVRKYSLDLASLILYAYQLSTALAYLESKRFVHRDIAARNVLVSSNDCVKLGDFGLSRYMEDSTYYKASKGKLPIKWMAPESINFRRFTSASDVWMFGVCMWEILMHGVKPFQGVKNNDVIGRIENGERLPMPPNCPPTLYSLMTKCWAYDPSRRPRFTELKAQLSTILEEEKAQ
T3 sequence (P28482 with tags, fused parts or gaps): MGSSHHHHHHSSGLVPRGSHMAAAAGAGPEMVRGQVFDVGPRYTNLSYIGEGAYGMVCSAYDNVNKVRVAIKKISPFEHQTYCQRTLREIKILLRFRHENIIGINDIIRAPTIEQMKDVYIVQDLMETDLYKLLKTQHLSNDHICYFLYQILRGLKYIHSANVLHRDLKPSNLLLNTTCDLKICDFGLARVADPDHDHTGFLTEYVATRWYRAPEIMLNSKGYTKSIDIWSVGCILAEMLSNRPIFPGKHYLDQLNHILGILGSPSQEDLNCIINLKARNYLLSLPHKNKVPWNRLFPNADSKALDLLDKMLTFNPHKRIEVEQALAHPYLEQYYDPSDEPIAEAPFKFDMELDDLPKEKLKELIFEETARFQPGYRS
T10 sequence (P15056 with tags, fused parts or gaps V600E): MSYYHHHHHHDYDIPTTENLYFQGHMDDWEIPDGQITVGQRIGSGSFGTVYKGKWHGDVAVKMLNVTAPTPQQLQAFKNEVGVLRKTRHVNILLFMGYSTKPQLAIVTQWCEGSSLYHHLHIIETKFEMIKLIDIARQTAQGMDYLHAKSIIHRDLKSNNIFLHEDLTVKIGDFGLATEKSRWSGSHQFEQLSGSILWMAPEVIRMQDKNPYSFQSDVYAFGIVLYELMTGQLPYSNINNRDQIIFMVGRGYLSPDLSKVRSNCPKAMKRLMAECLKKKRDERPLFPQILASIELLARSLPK
T12 sequence (P15056 whole entry): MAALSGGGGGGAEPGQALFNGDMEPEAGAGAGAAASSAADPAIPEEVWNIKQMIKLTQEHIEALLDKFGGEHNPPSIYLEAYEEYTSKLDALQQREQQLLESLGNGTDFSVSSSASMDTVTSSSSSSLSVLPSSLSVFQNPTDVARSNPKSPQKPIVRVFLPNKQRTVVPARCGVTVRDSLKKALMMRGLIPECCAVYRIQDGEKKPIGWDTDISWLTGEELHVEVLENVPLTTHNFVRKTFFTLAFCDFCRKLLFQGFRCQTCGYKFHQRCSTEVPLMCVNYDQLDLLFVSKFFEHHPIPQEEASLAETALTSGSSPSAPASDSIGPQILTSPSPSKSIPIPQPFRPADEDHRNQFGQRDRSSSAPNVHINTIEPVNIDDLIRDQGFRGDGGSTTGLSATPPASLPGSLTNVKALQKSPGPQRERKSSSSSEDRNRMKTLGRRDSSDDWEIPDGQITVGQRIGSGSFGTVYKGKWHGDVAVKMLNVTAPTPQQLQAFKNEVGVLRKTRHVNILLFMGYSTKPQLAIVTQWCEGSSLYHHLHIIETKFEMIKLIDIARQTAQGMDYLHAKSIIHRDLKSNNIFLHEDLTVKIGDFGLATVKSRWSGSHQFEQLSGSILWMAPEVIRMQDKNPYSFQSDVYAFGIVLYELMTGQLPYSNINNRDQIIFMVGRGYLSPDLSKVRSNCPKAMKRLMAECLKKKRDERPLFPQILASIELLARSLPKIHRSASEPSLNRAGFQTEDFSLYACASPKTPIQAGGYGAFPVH
T2 sequence (P35968 20-1356): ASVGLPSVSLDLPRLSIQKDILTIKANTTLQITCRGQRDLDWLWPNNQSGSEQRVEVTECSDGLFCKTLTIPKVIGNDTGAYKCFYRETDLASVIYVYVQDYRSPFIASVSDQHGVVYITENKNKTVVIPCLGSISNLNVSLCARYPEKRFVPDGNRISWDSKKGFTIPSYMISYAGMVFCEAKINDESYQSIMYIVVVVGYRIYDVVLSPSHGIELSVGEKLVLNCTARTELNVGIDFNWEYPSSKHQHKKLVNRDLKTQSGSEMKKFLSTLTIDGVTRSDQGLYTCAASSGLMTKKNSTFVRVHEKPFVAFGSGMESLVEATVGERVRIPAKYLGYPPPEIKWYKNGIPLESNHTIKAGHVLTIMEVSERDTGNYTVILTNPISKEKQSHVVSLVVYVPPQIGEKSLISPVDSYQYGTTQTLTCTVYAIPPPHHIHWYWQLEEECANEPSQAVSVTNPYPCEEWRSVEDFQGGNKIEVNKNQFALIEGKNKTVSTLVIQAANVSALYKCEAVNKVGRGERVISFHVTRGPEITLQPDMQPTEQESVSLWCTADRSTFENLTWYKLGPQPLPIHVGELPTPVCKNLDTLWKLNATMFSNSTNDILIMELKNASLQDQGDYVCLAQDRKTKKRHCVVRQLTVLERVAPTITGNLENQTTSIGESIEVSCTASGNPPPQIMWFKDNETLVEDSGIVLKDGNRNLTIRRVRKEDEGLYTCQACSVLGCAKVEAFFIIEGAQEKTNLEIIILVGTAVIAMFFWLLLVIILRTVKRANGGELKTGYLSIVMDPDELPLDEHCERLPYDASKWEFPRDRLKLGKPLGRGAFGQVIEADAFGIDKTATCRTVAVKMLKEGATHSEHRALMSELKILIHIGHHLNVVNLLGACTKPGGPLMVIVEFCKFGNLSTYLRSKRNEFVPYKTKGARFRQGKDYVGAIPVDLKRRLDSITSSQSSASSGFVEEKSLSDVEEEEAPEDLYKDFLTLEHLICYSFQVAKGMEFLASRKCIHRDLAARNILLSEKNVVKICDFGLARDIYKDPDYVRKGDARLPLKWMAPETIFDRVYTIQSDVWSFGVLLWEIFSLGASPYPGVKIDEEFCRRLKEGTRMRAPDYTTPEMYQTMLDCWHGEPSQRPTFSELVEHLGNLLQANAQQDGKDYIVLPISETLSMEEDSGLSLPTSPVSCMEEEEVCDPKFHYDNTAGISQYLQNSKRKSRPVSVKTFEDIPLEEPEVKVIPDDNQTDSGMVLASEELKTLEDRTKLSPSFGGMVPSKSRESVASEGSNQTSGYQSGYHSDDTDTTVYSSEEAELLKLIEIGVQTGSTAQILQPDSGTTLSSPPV
Sequence of Hck (P08631 whole entry): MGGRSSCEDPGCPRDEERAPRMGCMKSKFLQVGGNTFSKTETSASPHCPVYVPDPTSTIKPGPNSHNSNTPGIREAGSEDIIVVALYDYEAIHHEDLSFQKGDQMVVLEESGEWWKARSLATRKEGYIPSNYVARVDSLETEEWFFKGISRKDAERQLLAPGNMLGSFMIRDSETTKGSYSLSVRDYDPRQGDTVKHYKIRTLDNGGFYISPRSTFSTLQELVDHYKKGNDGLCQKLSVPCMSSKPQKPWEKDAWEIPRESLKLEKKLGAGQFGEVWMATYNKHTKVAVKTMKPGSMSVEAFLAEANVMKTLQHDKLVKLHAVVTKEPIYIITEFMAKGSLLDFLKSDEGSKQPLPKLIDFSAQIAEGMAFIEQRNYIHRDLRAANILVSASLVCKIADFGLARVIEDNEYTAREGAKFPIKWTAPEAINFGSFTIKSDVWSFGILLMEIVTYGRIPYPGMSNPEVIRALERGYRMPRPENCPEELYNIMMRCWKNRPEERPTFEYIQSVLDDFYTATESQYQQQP

O=S(=O)(NCc1c[nH]c2ncccc12)c1ccc(N2CCOCC2)nc1 [Compound P-0611]
≤ 10 µM: [1] | [2] | [3] | [4] | [5] | [6] | [7] | [8] | [9]

O=C(c1c(F)ccc(NS(=O)(=O)c2ccccc2)c1F)c1c[nH]c2ncc(Cl)cc12 [Compound P-0885, N-[3-(5-Chloro-1H-pyrrolo[2,3-b]pyridine-3-carbonyl)-2,4-difluorophenyl]-benzenesulfonamide]
not listed: [1] | [2] | [3] | [5] | [8] | [23] | [24] | [25] | [26]
≤ 10 µM: all other assays above

O=S(=O)(NCc1c[nH]c2ncccc12)c1cc(Cl)c(Cl)s1 [Compound P-0550]
not listed: [4] | [10] | [11] | [13] | [16] | [17] | [18] | [19] | [20] | [21] | [22]
≤ 10 µM: all other assays above
